These results are taken from patent EP4671240A1, “SALT CONTAINING AROMATIC RING DERIVATIVE ANTAGONIST, PREPARATION METHOD THEREFOR, AND APPLICATION THEREOF” (Jiangsu Hansoh Pharmaceutical Group Co., Ltd., priority 2023, dated 2024).

One assay has as its target T1, ETA receptors (Homo sapiens, UniProt P25101).
T1 construct: host or cells: HEK293
T1 sequence (P25101 21-427): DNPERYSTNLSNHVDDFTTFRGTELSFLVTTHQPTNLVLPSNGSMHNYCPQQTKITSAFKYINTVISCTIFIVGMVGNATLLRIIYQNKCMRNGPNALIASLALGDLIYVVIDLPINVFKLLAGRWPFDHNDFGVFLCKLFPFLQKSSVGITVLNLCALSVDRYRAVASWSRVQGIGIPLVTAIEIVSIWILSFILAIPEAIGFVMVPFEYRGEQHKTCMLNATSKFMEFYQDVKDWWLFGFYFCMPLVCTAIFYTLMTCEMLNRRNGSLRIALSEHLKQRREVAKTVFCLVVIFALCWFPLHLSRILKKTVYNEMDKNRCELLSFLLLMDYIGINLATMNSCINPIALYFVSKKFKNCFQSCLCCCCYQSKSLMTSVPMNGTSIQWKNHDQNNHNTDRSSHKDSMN
The assay is described as follows: effect on calcium current in cells stably expressing ETA receptors (HEK293-ETA, FLIPR, antagonist). Format: cell-based. The settings on record: 11 concentration points 10 µM to 0.17 nM. An excerpt: Test example 2. Determination of the effect of the compounds of the present invention on calcium current in cells stably expressing ETA receptors 1. Experimental objective: To test the antagonistic effect of compounds on HEK293-ETA cell activity 2. […] Experimental data processing method: FLIPR Tetra was used to read and collect the fluorescence signal value (RFU). The maximum RFU value was used to calculate the percent activation data based on the readings of the Low control (DMSO control) and High control (100 nM positive compound) experimental groups {% activation rate = (RFUsample - RFUlow control) / (RFUhigh control - RFUlow control)×100}. […]

In the next assay the target is T2, CYP450 2C19 (Homo sapiens, UniProt P33261).
T2 construct: Human liver microsome incubation system was used; from tissue; host or cells: human liver microsomes
The assay is described as follows: CYP enzyme single-point inhibition assay, 2C19. The format is in vitro ADME. The following applies: human liver microsomes, single-point method. As to the method: Human liver microsome incubation system was used, and the single-point method was used to quickly predict the inhibition on CYP450 enzyme subtypes (1A2, 2C19, 2D6, 3A4-M, and 3A4-T) by compounds.
For 2.5 mM NADPH, 4.165 mg of NADPH (reduced nicotinamide adenine dinucleotide phosphate) was weighed and 100 mM phosphate buffer was added to a final volume of 2 mL. For 0.25 mg/mL microsomes, 50 µL of 20 mg/mL microsomes was mixed with […] of 100 mM phosphate buffer evenly.
The test example compounds were weighed, diluted to 10 mM with DMSO, and then diluted to 100 µM with 100 mM phosphate buffer.
• 1. Liver microsomes (40 µL), substrate (10 µL), and test compound (10 µL) were added to a 96-well plate, and the mixture was pre-incubated for 3 min. • 2. NADPH (40 µL) was added. • 3. At 20 min, acetonitrile stop solution containing internal standard (300 µL) was added. • 4. The mixture was centrifuged and the sample was loaded.

Some results are limits rather than exact numbers.

T2 sequence (P33261 whole entry): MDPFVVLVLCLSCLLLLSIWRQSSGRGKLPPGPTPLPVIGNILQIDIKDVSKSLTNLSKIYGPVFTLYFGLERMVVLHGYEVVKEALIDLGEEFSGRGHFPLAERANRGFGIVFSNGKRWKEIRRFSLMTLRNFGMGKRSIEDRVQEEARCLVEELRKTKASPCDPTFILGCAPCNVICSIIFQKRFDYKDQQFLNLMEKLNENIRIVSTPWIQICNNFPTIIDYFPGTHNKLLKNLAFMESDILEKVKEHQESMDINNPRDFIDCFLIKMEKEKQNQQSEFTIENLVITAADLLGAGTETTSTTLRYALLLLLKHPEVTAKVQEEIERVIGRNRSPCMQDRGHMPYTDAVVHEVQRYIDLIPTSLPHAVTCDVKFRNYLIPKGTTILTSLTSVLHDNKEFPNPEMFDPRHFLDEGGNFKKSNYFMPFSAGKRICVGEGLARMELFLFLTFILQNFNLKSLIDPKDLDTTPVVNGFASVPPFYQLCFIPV

What is called IC50 is the concentration that gives 50% inhibition. As for `CCCCC1=NC2(CCCC2)C(=O)N1Cc1ccc(-c2ccccc2S(=O)(=O)Nc2noc(C)c2Cl)c(COCC)c1` [Example 8, 2-[4-[(2-Butyl-4-oxo-1,3-diazaspiro[4.4]non-1-en-3-yl)methyl]-2-(ethoxymethyl)phenyl]-N-(4-chloro-5-methyl-isoxazol-3-yl)benzenesulfonamide], the IC50 on ETA receptors is 14.9 nM; against CYP450 2C19, greater than 100000 nM.
The corresponding values for `[2H]C([2H])(c1ccc(-c2ccccc2S(=O)(=O)Nc2noc(C)c2Cl)c(COCC)c1)N1C(=O)C2(CCCC2)N=C1CCCC` [Example 2, 4'-((2-Butyl-4-oxo-1,3-diazaspiro[4.4]non-1-en-3-yl)methyl-d2)-N-(4-chloro-5-methylisoxazol-3-yl)-2'-(ethoxymethyl)-[1,1'-biphenyl]-2-sulfonamide] are 15.1 nM and greater than 100000 nM.
